Assay results: patent publication US8399196B2, “Nucleic acid sequencing methods, kits and reagents” (GeneForm Technologies Limited, priority 2003, dated 2013)
Where two headings read alike, the source gives them in different places.

Target: T1, Klenow exo- with template-primer (Escherichia coli, UniProt P00582, D355A/E357A)
T1 construct: purchased New England Biolabs
Assay type: binding
Conditions: for signal +polymerase + DUpNHPP: 0.3 uM Dye-DUTP conjugate, buffer background subtracted
Experimental: (1) Dideoxy terminated primer and template were mixed at a ratio of 2:1 (final template concentrations were varied as shown)
(2) DGTP DCTP and DATP was added to a final concentration of 1 mM.
(3) 0.3 uM of Intercalator-Dye-DUTP conjugate was added to the system.
(4) In some samples non-incorporable DUTP (DUPNHPP) was added as shown.
(5) 300 nM Klenow exo- was added
(6) The system was heated to at 37° C.
Where the intercalating dye is conjugated to DNPNHPP or other nonincorporable entities, then the dideoxy terminated primer is unnecessary and will allow sequential sequencing if a limited concentration of native bases are added.
Buffer background subtracted.

T1 sequence (P00582 324-928 D355A/E357A): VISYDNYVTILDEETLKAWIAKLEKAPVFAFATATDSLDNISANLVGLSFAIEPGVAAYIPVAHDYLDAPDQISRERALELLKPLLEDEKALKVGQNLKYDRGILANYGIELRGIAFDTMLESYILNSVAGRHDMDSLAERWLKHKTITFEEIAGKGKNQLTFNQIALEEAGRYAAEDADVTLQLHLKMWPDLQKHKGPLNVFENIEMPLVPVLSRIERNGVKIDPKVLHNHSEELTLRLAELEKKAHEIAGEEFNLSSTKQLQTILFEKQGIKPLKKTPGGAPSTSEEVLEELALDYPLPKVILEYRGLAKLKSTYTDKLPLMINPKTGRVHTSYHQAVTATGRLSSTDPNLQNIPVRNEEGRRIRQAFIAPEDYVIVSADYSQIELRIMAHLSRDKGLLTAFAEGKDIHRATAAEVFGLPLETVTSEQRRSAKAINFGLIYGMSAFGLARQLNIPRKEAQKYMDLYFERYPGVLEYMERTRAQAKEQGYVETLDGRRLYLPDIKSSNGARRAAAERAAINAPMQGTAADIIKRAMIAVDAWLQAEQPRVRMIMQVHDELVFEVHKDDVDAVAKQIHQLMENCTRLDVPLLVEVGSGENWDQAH

SMILES: O=c1ccn([C@H]2CC(O)[C@@H](COP(=O)(O)NP(=O)(O)OP(=O)(O)O)O2)c(=O)[nH]1 (stereo partly shown) [DUPNHPP]
- signal, T-P + Dye-DUTP + Primer1 + DUPNHPP (DUPNHPP added in competition with 0.3 uM Dye-DUTP, DUPNHPP concentration not given): 320
- signal +polymerase + DUpNHPP (Template-primer-a 0.015625 uM): 55
- signal +polymerase + DUpNHPP (Template-primer-a 0.03125 uM): 114
- signal +polymerase + DUpNHPP (Template-primer-a 0.0625 uM): 234
- signal +polymerase + DUpNHPP (Template-primer-a 0.125 uM): 438
- signal +polymerase + DUpNHPP (Template-primer-a 0.25 uM): 916
- signal +polymerase + DUpNHPP (Template-primer-a 0.5 uM): 1802
